Values belong to the molecule of their own block, whether it stands above or below them.
How the values were obtained:
[1] = test system: sleep; design: method as in Fox et al., 2013; settings: rodent studies; ref Fox et al., 2013; cited from earlier work
[2] = molecular target: T1, human OX2R (Homo sapiens, UniProt O43614); assay: [3H]-BBAC saturation binding, CHO-hOX2 membranes
T1 construct: expressed in transfected cells; host or cells: CHO; cells from GNF, San Diego
T1 sequence (O43614 1-444): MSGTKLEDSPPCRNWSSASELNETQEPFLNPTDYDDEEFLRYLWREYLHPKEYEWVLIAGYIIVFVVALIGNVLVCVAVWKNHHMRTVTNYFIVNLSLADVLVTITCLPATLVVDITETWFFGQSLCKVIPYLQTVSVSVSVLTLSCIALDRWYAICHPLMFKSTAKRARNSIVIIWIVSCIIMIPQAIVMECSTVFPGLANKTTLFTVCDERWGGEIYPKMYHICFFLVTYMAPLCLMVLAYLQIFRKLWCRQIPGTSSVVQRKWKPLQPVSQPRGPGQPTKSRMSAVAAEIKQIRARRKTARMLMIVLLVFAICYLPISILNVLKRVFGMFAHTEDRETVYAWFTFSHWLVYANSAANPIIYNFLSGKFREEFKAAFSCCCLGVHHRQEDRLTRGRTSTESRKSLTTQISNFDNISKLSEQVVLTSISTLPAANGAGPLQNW
Description: (§1) Chinese Hamster Ovary (CHO) cells stably transfected with the cDNA encoding the human OX1R (CHO-hOX1) or OX2R (CHO-hOX2) were used (kindly provided by T. Cremer and Dr. S. Geisse, NIBR Basel, Switzerland). For measurements of calcium accumulation using FLIPR® (Fluorescent Imaging Plate Reader) assay, CHO or Human Embryonic Kidney (HEK) cells stably expressing mouse, rat or human OX1R or OX2R (kindly provided by Dr. A. Chen, GNF, San Diego, CA, USA) were used. […] Cells were maintained in a humidified incubator at 37°C in 5% CO2. For crude cell membrane preparations, cells were washed and harvested in 10 mM HEPES (pH 7.5), and centrifuged at 4°C for 5 min at 2500 g. The cell pellet was either stored at −80°C or used directly.
(§2) Cell membranes were resuspended in binding assay buffer at 4°C (10 mM HEPES, pH 7.5, 0.5% (w/v) bovine serum albumin (BSA), 5 mM MgCl2, 1 mM CaCl2, and 0.05% Tween 20) and homogenized with a Polytron homogenizer at 50 Hz for 20 s. […] Radioactivity was quantified using a TopCount™ microplate counter (Perkin Elmer).
(§3) Data in the figures is representative of the mean ± s.e.m. of a single experiment.
(§4) All data was analyzed using GraphPad Prism 4.0 (GraphPad, San Diego, USA). The saturation data was fit to a non-linear regression model for saturation binding with consideration for one site binding. […]

[3] = molecular target: T2, human OX1R (Homo sapiens, UniProt O43613); assay: [3H]-BBAC saturation binding, CHO-hOX1 membranes
T2 construct: expressed in transfected cells; host or cells: CHO; cells from GNF, San Diego
T2 sequence (O43613 1-425): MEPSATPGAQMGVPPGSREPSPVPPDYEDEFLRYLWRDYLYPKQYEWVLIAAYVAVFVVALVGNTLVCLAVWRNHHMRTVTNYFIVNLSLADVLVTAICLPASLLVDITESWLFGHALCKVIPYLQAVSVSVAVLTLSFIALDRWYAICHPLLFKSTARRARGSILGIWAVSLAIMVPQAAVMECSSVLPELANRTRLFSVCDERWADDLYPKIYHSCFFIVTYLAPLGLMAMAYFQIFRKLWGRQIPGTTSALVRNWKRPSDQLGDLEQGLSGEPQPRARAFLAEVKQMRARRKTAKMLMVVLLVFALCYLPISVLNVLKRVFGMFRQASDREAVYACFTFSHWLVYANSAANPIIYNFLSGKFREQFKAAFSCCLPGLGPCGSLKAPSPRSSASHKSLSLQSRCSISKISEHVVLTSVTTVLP
Description: as §1, §2, §3, §4

[4] = test system: OX1R; design: method as in Sakurai et al., 1998; settings: competition radioligand binding, ref Sakurai et al., 1998; cited from earlier work
[5] = test system: OX2R; assay: FLIPR calcium assay, OX2R, species not given; assay type: cell-based; settings: species not stated
Method: (§5) Determination of orexin A-stimulated calcium accumulation was performed over 2 days using FLIPR® (Fluorescent imaging plate reader from Molecular Devices-FLIPR384). Cells expressing either human, rat or mouse OX1R or OX2R were seeded at 8,000 cells/well in black 384 well clear bottom plates and incubated overnight at 37°C. The following day, medium was discarded and cells loaded with 50 μ l of 1 mM Fluo-4 AM (Invitrogen F14202) in dimethyl sulfoxide in working buffer (Hanks' balanced salt solution, 10 mM HEPES) and incubated for 60 min at 37°C. The loading buffer was removed and cells were washed with 100 μ l working buffer containing […], 0.1% BSA, and 2.5 mM Probenecid (pH 7.4) to remove the excess Fluo-4 AM. Working buffer was added and plates were incubated 10–15 min at room temperature. The assay plate was then transferred to the Molecular Devices-FLIPR384. The baseline calcium signal was recorded for 10 s, then the antagonist of interest was injected (10 μl at 3 times the final concentration) and the calcium signal recorded every second for 1 min, then every 2 s 40 times. Plates were then incubated at room temperature for 30 min, 1, 2, or 4 h.

[6] = molecular target: T2, human OX1R; assay: [3H]-BBAC competition binding over time, CHO-hOX1 membranes
Description: as §1, §2
(§6) All data was analyzed using GraphPad Prism 4.0 (GraphPad, San Diego, USA). The saturation data was fit to a non-linear regression model for saturation binding with consideration for one site binding. […] Competition binding data was fit to a non-linear regression model for competition binding with consideration for variable one site binding with a non-fixed Hill slope.

[7] = test system: OX1R; assay: FLIPR calcium assay, OX1R, species not given; assay type: cell-based; settings: species not stated
Method: as §5

[8] = molecular target: T1, human OX2R; assay: [3H]-BBAC competition binding over time, CHO-hOX2 membranes
Description: as §1, §2, §6

Molecule: C[C@@H]1CC[C@@H](COc2ccc(F)cn2)CN1C(=O)c1cc(F)ccc1-c1ncccn1 [DORA-22]
effect on sleep [1]: promotes sleep with dose-dependent increases in REM sleep

Kd ([2]; CHO-hOX2 membranes, room temperature): ~1 nM
incubation time sufficient to reach Bmax and KD values comparable to 4 h ([2]; OX2R): 15 to 30 min
incubation time sufficient to reach Bmax and KD values comparable to 4 h [3]: 15 to 30 min
Molecule: Cn1c(SCC(=O)N2CCC[C@H]2C(=O)Nc2ccccc2-c2ccccc2)nc2ccccc21 [[^3H]-BBAC, (S)-N-([1,1′-biphenyl]-2-yl)-1-(2-((1-methyl-1H-benzo[d]imidazol-2-yl)thio)acetyl)pyrrolidine-2-carboxamide]

Molecule: orexin B: endogenous orexin peptide
affinity [4]: 250 nM

time to reach equilibrium ([6]; competition for [3H]-BBAC, OX1R): 15 to 30 min
time to reach equilibrium ([8]; competition for [3H]-BBAC, OX2R): 15 to 30 min
Molecule: Cn1c(SCC(=O)N2CCC[C@H]2C(=O)Nc2ccccc2-c2ccccc2)nc2ccccc21 [BBAC, (S)-N-([1,1′-biphenyl]-2-yl)-1-(2-((1-methyl-1H-benzo[d]imidazol-2-yl)thio)acetyl)pyrrolidine-2-carboxamide]
effect of incubation time on potency in calcium assay [5]: constant potency values irrespective of the incubation time
effect of incubation time on competition curves ([6]; competition for 4.6 nM [3H]-BBAC, 15 min to 4 h, human OX1R): no significant difference in IC50 values measured between 30 min and 4 h
effect of incubation time on potency in calcium assay [7]: constant potency values irrespective of the incubation time
effect of incubation time on competition curves ([8]; competition for 4.6 nM [3H]-BBAC, 15 min to 4 h, human OX2R): no significant difference in IC50 values measured between 30 min and 4 h
